Read-outs that look alike come from different tables or passages of the source. No end group written: not given here.
Key:
[1] = tested on: Pseudomonas aeruginosa ATCC 9027; assay: Antimicrobial assay I, MIC by OD measurement; assay type: cell-based; settings: 37° C. for 24 hours, absorbance 620 nm
[2] = tested on: Staphylococcus aureus ATCC 6538; assay: Antimicrobial assay I, MIC by OD measurement; assay type: cell-based; settings: 37° C. for 24 hours, absorbance 620 nm
[3] = tested on: yeast (Saccharomyces cerevisiae); assay: Antimicrobial assay I, yeast assay in RPMI 1640; assay type: cell-based; settings: RPMI 1640 media
S. aureus (MRSA) = assay type: cell-based, Staphylococcus aureus; settings: mean of three; 16 to 20 hours at 35° C.
S. epidermidis C621 = assay type: cell-based, Staphylococcus epidermidis; settings: mean of three; 16 to 20 hours at 35° C.
S. pyogenes M76 = assay: Antimicrobial assays II, NCCLS broth microdilution MIC; assay type: cell-based, Streptococcus pyogenes; settings: mean of three; 16 to 20 hours at 35° C.
S. pyogenes ATCC19615 = assay: as above; assay type: cell-based, Streptococcus pyogenes; settings: mean of three, in µg/mL
S. pneumoniae C718 = assay: as above; assay type: cell-based, Streptococcus pneumoniae; settings: mean of three
S. pneumoniae C719 = assay: as above; assay type: cell-based, Streptococcus pneumoniae; settings: mean of three, in µg/mL
P. acne ATCC 6919 = assay: as above; assay type: cell-based, Propionibacterium acnes; settings: mean of three, in µg/mL
BMKC = assay: Anti-cancer assay, MTT, LD50; assay type: cell-based; settings: BMKC cloned melanoma line, 24 hours with peptide
From the text: (§1) Numbers are LD50 values (μg/mL).

H1299 = assay: Anti-cancer assay, MTT, LD50; assay type: cell-based; settings: 24 hours with peptide, lung large cell carcinoma
From the text: as §1

HeLaS3 = assay: Anti-cancer assay, MTT, LD50; assay type: cell-based; settings: 24 hours with peptide, cervical carcinoma
From the text: as §1

MCF7 = assay: Anti-cancer assay, MTT, LD50; assay type: cell-based; settings: MCF7 breast adenocarcinoma line, MTT, 24 hours with peptide
From the text: as §1

PC3 = assay: Anti-cancer assay, MTT, LD50; assay type: cell-based; settings: 24 hours with peptide, prostate adenocarcinoma
From the text: as §1

SW480 = assay: Anti-cancer assay, MTT, LD50; assay type: cell-based; settings: SW480 colon adenocarcinoma line, 24 hours with peptide
From the text: as §1

in vitro [4] = assay type: cell-based, human; settings: human, human red blood cells, pH 7, hemolytic assay, concentration at 50% hemolysis, 1 hour at 37° C.; read-out: LD50
P. aeruginosa H374 = assay type: cell-based, Pseudomonas aeruginosa; settings: for MIC Cm-comb.: MIC of chloramphenicol with peptide at ¼ MIC; for MIC Nal-comb.: MIC of nalidixic acid with peptide at ¼ MIC; for FIC Index: 0.5 or less = synergy
Method in brief: (§2)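 FIC index, computed as 0.25 plus the ratio of combination to single-agent antibiotic MIC, defines synergy when 0.5 or below. Peptide fixed at one quarter MIC while chloramphenicol or nalidixic acid was serially diluted two-fold; antibiotic-alone MICs served as baselines.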

P. aeruginosa H774 = assay type: cell-based, Pseudomonas aeruginosa; settings: P. aeruginosa H744; nalidixic acid + peptide at ¼ MIC; 0.5 or less = synergy
Method in brief: as §2

P. aeruginosa = assay type: cell-based, Pseudomonas aeruginosa; settings: P. aeruginosa H744; MIC of nalidixic acid with peptide at ¼ MIC
Method in brief: as §2

WI38 = settings: MTT, 24 hours with peptide; normal fibroblast line
in vitro [5] = settings: human, WI38 normal lung fibroblast cells, LD50 WI38, WI38 normal lung fibroblast line, MTT, 24 hours with peptide
[6] = chloramphenicol + peptide at ¼ MIC
[7] = nalidixic acid + peptide at ¼ MIC, FIC=0.25+MIC comb/MIC alone

**Q.** Which results are given for “FAKFLAKFLKKAL-NH2 [P111, FAKFLAKFLKKAL-NH2]”?
**A.** paerug9027 (MIC) [1]: 100 µg/mL; staph6538 (MIC) [2]: 5 µg/mL; yeast (MIC or MFC) [3]: 200 µg/mL; S. aureus (MRSA) MIC (S. aureus (MRSA)): 8 µg/mL; S. epidermidis C621 MIC (S. epidermidis C621): 4 µg/mL; S. pyogenes M76 MIC (S. pyogenes M76): 4 µg/mL; S. pyogenes MIC (S. pyogenes ATCC19615): 2; S. pneumoniae MIC (S. pneumoniae C718): 16 µg/mL; S. pneumoniae MIC (S. pneumoniae C719): 4; P. acne MIC (P. acne ATCC 6919): 4; LD50 BMKC (BMKC): 26 µg/mL; H1299 LD50 (H1299): 8 µg/mL; HeLaS3 LD50 (HeLaS3): 7 µg/mL; LD50 MCF7 (MCF7): 35 µg/mL; PC3 LD50 (PC3): 11 µg/mL; LD50 SW480 (SW480): 27 µg/mL; HC50 at 1 h (in vitro [4]): 60 µg/mL; MIC Cm-comb. (P. aeruginosa H374): 16 µg/mL; MIC Nal-comb. (P. aeruginosa H374): 2500 µg/mL; FIC Index (P. aeruginosa H374; [6]): 1.25; FIC Index (P. aeruginosa H374; [7]): 0.75; FIC Index (P. aeruginosa H774): 1.25; MIC Nal-comb. (P. aeruginosa): 624 µg/mL; WI38 LD50 (WI38): 24 µg/mL; CC50 at 24 h (in vitro [5]): 24 µg/mL

**Q.** Which results are given for FAKKLAKKLAKLL-NH2 [P75]?
**A.** paerug9027 (MIC) [1]: 5 µg/mL; staph6538 (MIC) [2]: 5 µg/mL; yeast (MIC or MFC) [3]: 50 µg/mL; S. aureus (MRSA) MIC (S. aureus (MRSA)): 32 µg/mL; S. epidermidis C621 MIC (S. epidermidis C621): 8 µg/mL; S. pyogenes M76 MIC (S. pyogenes M76): 8 µg/mL; S. pyogenes MIC (S. pyogenes ATCC19615): 4; S. pneumoniae MIC (S. pneumoniae C718): > 128 µg/mL; S. pneumoniae MIC (S. pneumoniae C719): 64; P. acne MIC (P. acne ATCC 6919): 16; LD50 BMKC (BMKC): 24 µg/mL; H1299 LD50 (H1299): 80 µg/mL; HeLaS3 LD50 (HeLaS3): 74 µg/mL; LD50 MCF7 (MCF7): 42 µg/mL; PC3 LD50 (PC3): 54 µg/mL; LD50 SW480 (SW480): 17 µg/mL; HC50 at 1 h (in vitro [4]): 750 µg/mL; MIC Cm-comb. (P. aeruginosa H374): 8 µg/mL; MIC Nal-comb. (P. aeruginosa H374): 2500 µg/mL; FIC Index (P. aeruginosa H374; [6]): 0.75; FIC Index (P. aeruginosa H374; [7]): 0.75; FIC Index (P. aeruginosa H774): 1.25; MIC Nal-comb. (P. aeruginosa): 624 µg/mL; WI38 LD50 (WI38): 80 µg/mL; CC50 at 24 h (in vitro [5]): 80 µg/mL

**Q.** Which results are given for FAKKLAKLALKLAKL-NH2 [P44]?
**A.** paerug9027 (MIC) [1]: 5 µg/mL; staph6538 (MIC) [2]: 5 µg/mL; yeast (MIC or MFC) [3]: 50 µg/mL; S. aureus (MRSA) MIC (S. aureus (MRSA)): 8 µg/mL; S. epidermidis C621 MIC (S. epidermidis C621): 4 µg/mL; S. pyogenes M76 MIC (S. pyogenes M76): 4 µg/mL; S. pyogenes MIC (S. pyogenes ATCC19615): 4; S. pneumoniae MIC (S. pneumoniae C718): 8 µg/mL; S. pneumoniae MIC (S. pneumoniae C719): 16; P. acne MIC (P. acne ATCC 6919): 4; LD50 BMKC (BMKC): 47 µg/mL; H1299 LD50 (H1299): 72 µg/mL; HeLaS3 LD50 (HeLaS3): 22 µg/mL; LD50 MCF7 (MCF7): 140 µg/mL; PC3 LD50 (PC3): 45 µg/mL; LD50 SW480 (SW480): 32 µg/mL; HC50 at 1 h (in vitro [4]): 90 µg/mL; MIC Cm-comb. (P. aeruginosa H374): 16 µg/mL; MIC Nal-comb. (P. aeruginosa H374): 5000 µg/mL; FIC Index (P. aeruginosa H374; [6]): 1.25; FIC Index (P. aeruginosa H374; [7]): 1.25; FIC Index (P. aeruginosa H774): 1.25; MIC Nal-comb. (P. aeruginosa): 624 µg/mL; WI38 LD50 (WI38): 36 µg/mL; CC50 at 24 h (in vitro [5]): 36 µg/mL

**Q.** With “FAKLLAKALKKFAL-NH2 [P119, FAKLLAKALKKFAL-NH2]” as the substance, how does the “paerug9027 (MIC)” value [1] read?
**A.** 25 µg/mL

**Q.** What about the “staph6538 (MIC)” value [2] of the same substance?
**A.** 50 µg/mL

**Q.** What about the “yeast (MIC or MFC)” value [3] of the same substance?
**A.** 50 µg/mL

**Q.** What about the S. aureus (MRSA) MIC (S. aureus (MRSA)) of the same substance?
**A.** 8 µg/mL

**Q.** And the S. epidermidis C621 MIC (S. epidermidis C621)?
**A.** 4 µg/mL

**Q.** What about the S. pyogenes M76 MIC (S. pyogenes M76) of the same substance?
**A.** 8 µg/mL

**Q.** And the “S. pyogenes MIC” value (S. pyogenes ATCC19615)?
**A.** 8

**Q.** What about the S. pneumoniae MIC (S. pneumoniae C718) of the same substance?
**A.** 128 µg/mL

**Q.** And the “S. pneumoniae MIC” value (S. pneumoniae C719)?
**A.** 32

**Q.** What about the “P. acne MIC” value (P. acne ATCC 6919) of the same substance?
**A.** 8

**Q.** What about the “LD50 BMKC” value (BMKC) of the same substance?
**A.** 36 µg/mL

**Q.** What about the “H1299 LD50” value (H1299) of the same substance?
**A.** 33 µg/mL

**Q.** And the “HeLaS3 LD50” value (HeLaS3)?
**A.** 30 µg/mL

**Q.** And the “LD50 MCF7” value (MCF7)?
**A.** 54 µg/mL

**Q.** And the “PC3 LD50” value (PC3)?
**A.** 140 µg/mL

**Q.** What about the “LD50 SW480” value (SW480) of the same substance?
**A.** 46 µg/mL

**Q.** What about the HC50 at 1 h (in vitro [4]) of the same substance?
**A.** 400 µg/mL

**Q.** And the “MIC Cm-comb.” value (P. aeruginosa H374)?
**A.** 16 µg/mL

**Q.** And the “MIC Nal-comb.” value (P. aeruginosa H374)?
**A.** 2500 µg/mL

**Q.** And the “FIC Index” value (P. aeruginosa H374; [6])?
**A.** 1.25

**Q.** And the “FIC Index” value (P. aeruginosa H374; [7])?
**A.** 0.75

**Q.** What about the “FIC Index” value (P. aeruginosa H774) of the same substance?
**A.** 1.25

**Q.** And the “MIC Nal-comb.” value (P. aeruginosa)?
**A.** 624 µg/mL

**Q.** And the “WI38 LD50” value (WI38)?
**A.** 45 µg/mL

**Q.** And the CC50 at 24 h (in vitro [5])?
**A.** 45 µg/mL
